From patent US6589759B1, “Compositions and methods for producing platelets and/or proplatelets from megakaryocytes” (Trustees of Boston University, priority 1999, dated 2003) come the findings set out here.

The test system of experiment [1] is Meg-01 cells. Briefly: Production of cGMP from megakaryocytes treated with SNO-glu (ELISA). To be noted: for cGMP: n = 2. The format is cell-based, human. As for the experimental part:
The Meg-01 cells were grown as described in Example 1. The Med-01 cells, in the presence and absence of TPO, were treated with 100 μM SNO-glu for varying lengths of time. The cells were collected by centrifugation (1000 rpm for 10 minutes), and then lysed with 6% trichloroacteic acid (TCA). The cGMP was extracted with distilled water-saturated ether. The cGMP was quantified using the standard ELISA assay (Caymen Chemical Inc., Ann Arbor, Mich.).

For experiment [2], the system named is Meg-01 cells. Briefly: Platelet-sized particle production from Meg-01 cells by flow cytometry (GPIIIa positive). The class given is cell-based, human. Conditions: for production of GPIIIa positive platelet-sized particles: Meg-01 cells pretreated with 100 ng/ml thrombopoietin for 72 hours, then 100 μM SNO-glu for 2 hours. As for the experimental part:
The production of platelet-sized particles in the Meg-01 cell line using flow cytometry was determined. Human megakaryoblastic leukemia cell line Meg-01 was obtained from American Type Culture Collection (Manassas, Va.) and grown in phenol red-free RPMI-1640 media (Gibco-BRL, Grand Island, N.Y.) supplemented with 10% fetal bovine serum at 37° C. in a humidified atmosphere of 5% CO2. The experiment to monitor platelet production by the megakaryocytoid cell line, Meg-01, were performed as follows: 10 ml of Meg-01 cells (1×10^5/ml) were treated with 100 ng/ml of thrombopoietin (TPO, Amgen, Thousand Oaks, Calif.) for 72 hours. The cells were then centrifuged at 1000 rpm for 10 minutes, washed with phosphate buffered saline (PBS) and resuspended in RPMI-1640 media. Meg-01 cells, in the presence and absence of TPO, were treated with 100 μM SNO-glu for 2 hours. The cells were collected by centrifugation (1000 rpm for 10 minutes), washed once in PBS, resuspended in 500 μl of 3% formaldehyde, and allowed to fix for 20 minutes at room temperature. After fixation, 100 μl of cells were labeled with fluorescein isothiocyanate-conjugated (FITC)-conjugated monoclonal mouse anti-human platelet glycoprotein IIIa, CD61 (GPIIIa, DAKO Corp. Carpinteria, Calif.) at a near saturating concentration and incubated at room temperature for 20 minutes. The sample was diluted in 100 μl of PBS and analyzed on a Coulter EPICS XL flow cytometer (Coulter, Miami, Fla.). DNA check flow cytometry beads purchased from Coulter were used for daily instrument calibration. Appropriate color compensation was set for FITC fluorescence and phycoerythrin fluorescence using 525 nm and 575 nm band pass filters, respectively. All data were saved in flow cytometry list mode files and analyzed using Coulter ELITE software, version 2.21. Platelet-sized particles were identified by characteristic log forward light scatter (LFS). Only those particles that bound the anti-GPIIIa-FITC antibody ([…] FITC-conjugated antibody) (Dako, Denmark) were analyzed (by gating the fluorescence signal).
A general note: A flow cytometer gives signals particle by particle.

With “TPO: thrombopoiesis stimulating factor thrombopoietin (TPO, Amgen)”, the “effect of added TPO on cGMP production during SNO-glu treatment” value in experiment [1] (Meg-01 cells, TPO added during 100 μM SNO-glu treatment) is reported as “completely suppressed the production of cGMP”.
As for `N[C@@H](CCC(=O)N[C@@H](CSN=O)C(=O)NCC(=O)O)C(=O)O` [SNO-Glu, S-nitroso-glutathione], the “production of GPIIIa positive platelet-sized particles” value in experiment [2] (listed as S-nitroso-glutathione) is on record as “promoted platelet-like particle formation”; in experiment [2] (listed as SNO-glu) it was “enhanced production of GPIIIa positive platelet-sized particles”. In addition, the “formation of GPIIIa positive platelet-sized particles” value in experiment [2] (Meg-01 cells, 100 μM SNO-glu for 2 hours, no TPO) is listed as “formation of GPIIIa positive platelet-sized particle population”. Moreover, the cGMP in experiment [1] (100 μM SNO-Glu in the presence of TPO, 30 minutes) was 0.960 pmol cGMP/mg Protein; in experiment [1] (100 μM, 5 minutes), 263.1 pmol cGMP/mg Protein; in experiment [1] (100 μM, 10 minutes), 461.2 pmol cGMP/mg Protein; in experiment [1] (100 μM, 20 minutes), 472.9 pmol cGMP/mg Protein; in experiment [1] (100 μM, 30 minutes), 611.3 pmol cGMP/mg Protein. Further, the “production of cGMP (in words)” value in experiment [1] (Meg-01 cells, 100 μM SNO-glu) is “increased production of cGMP”.
